Measured values reported in ChEMBL document CHEMBL1201862, “PubChem BioAssay data set” (2004).
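Briefly, cells in 96-well plates were exposed to five compound concentrations for 48 h, and endpoints were estimated by linear interpolation. At the GI50, growth is halved.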 Calls of active or inactive are those of the source. Cut-off read from the data, not from the text of the source: active = GI50 up to about 1.1 µM and inactive = higher.

Key:
Experiment in all cases: NCI tumour cell line growth inhibition, 48 h
COLO 205 = system: COLO 205
MOLT-4 = system: MOLT-4
SK-MEL-28 = system: SK-MEL-28
ACHN = system: ACHN
IGROV-1 = system: IGROV-1
LOX IMVI = system: LOX IMVI
DU-145 = system: DU-145
SNB-19 = system: SNB-19
MDA-N = system: MDA-N
U-251 = system: U-251
TK-10 = system: TK-10
SF-295 = system: SF-295
SF-539 = system: SF-539
HCT-15 = system: HCT-15
OVCAR-3 = system: OVCAR-3
HCC 2998 = system: HCC 2998
SK-MEL-2 = system: SK-MEL-2
KM12 = system: KM12
HL-60 = system: HL-60
UACC-62 = system: UACC-62
HOP-62 = system: HOP-62
HCT-116 = system: HCT-116
HOP-92 = system: HOP-92
BT-549 = system: BT-549
HT-29 = system: HT-29
SW-620 = system: SW-620
UACC-257 = system: UACC-257
NCI-H226 = system: NCI-H226
SK-OV-3 = system: SK-OV-3
PC-3 = system: PC-3
SR = system: SR
OVCAR-8 = system: OVCAR-8
CCRF-CEM = system: CCRF-CEM
Hs-578T = system: Hs-578T
EKVX = system: EKVX
SF-268 = system: SF-268
NCI-H522 = system: NCI-H522
NCI-H460 = system: NCI-H460
M14 = system: M14
NCI-H23 = system: NCI-H23
MDA-MB-435 = system: MDA-MB-435
Malme-3M = system: Malme-3M
OVCAR-5 = system: OVCAR-5
MCF7 = system: MCF7
OVCAR-4 = system: OVCAR-4
MDA-MB-231 = system: MDA-MB-231
SN12C = system: SN12C
RPMI-8226 = system: RPMI-8226
CAKI-1 = system: CAKI-1
K562 = system: K562
A549 = system: A549
NCI/ADR-RES = system: NCI/ADR-RES
786-0 = system: 786-0
SNB-75 = system: SNB-75
UO-31 = system: UO-31

Question: For `Cc1nc2ccc(S(=O)(=O)Nc3ccccc3)cc2c(=O)n1NC(=O)CNc1ccccc1`, which GI50 (COLO 205) is on record?
Answer: > 100 µM (inactive)

Question: What about the GI50 (MOLT-4) of the same compound?
Answer: > 100 µM (inactive)

Question: And the GI50 (SK-MEL-28)?
Answer: > 100 µM (inactive)

Question: What about the GI50 (ACHN) of the same compound?
Answer: > 100 µM (inactive)

Question: What about the GI50 (IGROV-1) of the same compound?
Answer: 67.3 µM (inactive)

Question: And the GI50 (LOX IMVI)?
Answer: > 100 µM (inactive)

Question: What about the GI50 (DU-145) of the same compound?
Answer: > 100 µM (inactive)

Question: And the GI50 (SNB-19)?
Answer: > 100 µM (inactive)

Question: What about the GI50 (MDA-N) of the same compound?
Answer: > 100 µM (inactive)

Question: What about the GI50 (U-251) of the same compound?
Answer: > 100 µM (inactive)

Question: What about the GI50 (TK-10) of the same compound?
Answer: > 100 µM (inactive)

Question: And the GI50 (SF-295)?
Answer: > 100 µM (inactive)

Question: What about the GI50 (SF-539) of the same compound?
Answer: > 100 µM (inactive)

Question: What about the GI50 (HCT-15) of the same compound?
Answer: > 100 µM

Question: And the GI50 (OVCAR-3)?
Answer: > 100 µM (inactive)

Question: And the GI50 (HCC 2998)?
Answer: > 100 µM (inactive)

Question: What about the GI50 (SK-MEL-2) of the same compound?
Answer: > 100 µM (inactive)

Question: And the GI50 (KM12)?
Answer: > 100 µM (inactive)

Question: What about the GI50 (HL-60) of the same compound?
Answer: > 100 µM (inactive)

Question: What about the GI50 (UACC-62) of the same compound?
Answer: > 100 µM (inactive)

Question: And the GI50 (HOP-62)?
Answer: 73.5 µM (inactive)

Question: And the GI50 (HCT-116)?
Answer: > 100 µM (inactive)

Question: And the GI50 (HOP-92)?
Answer: > 100 µM (inactive)

Question: What about the GI50 (BT-549) of the same compound?
Answer: > 100 µM (inactive)

Question: What about the GI50 (HT-29) of the same compound?
Answer: > 100 µM (inactive)

Question: What about the GI50 (SW-620) of the same compound?
Answer: > 100 µM (inactive)

Question: And the GI50 (UACC-257)?
Answer: > 100 µM (inactive)

Question: And the GI50 (NCI-H226)?
Answer: > 100 µM (inactive)

Question: And the GI50 (SK-OV-3)?
Answer: > 100 µM (inactive)

Question: What about the GI50 (PC-3) of the same compound?
Answer: > 100 µM (inactive)

Question: What about the GI50 (SR) of the same compound?
Answer: > 100 µM (inactive)

Question: And the GI50 (OVCAR-8)?
Answer: > 100 µM (inactive)

Question: And the GI50 (CCRF-CEM)?
Answer: > 100 µM (inactive)

Question: What about the GI50 (Hs-578T) of the same compound?
Answer: > 100 µM (inactive)

Question: What about the GI50 (EKVX) of the same compound?
Answer: > 100 µM (inactive)

Question: What about the GI50 (SF-268) of the same compound?
Answer: > 100 µM (inactive)

Question: What about the GI50 (NCI-H522) of the same compound?
Answer: > 100 µM (inactive)

Question: What about the GI50 (NCI-H460) of the same compound?
Answer: > 100 µM (inactive)

Question: What about the GI50 (M14) of the same compound?
Answer: > 100 µM (inactive)

Question: What about the GI50 (NCI-H23) of the same compound?
Answer: > 100 µM (inactive)

Question: What about the GI50 (MDA-MB-435) of the same compound?
Answer: > 100 µM (inactive)

Question: And the GI50 (Malme-3M)?
Answer: > 100 µM (inactive)

Question: And the GI50 (OVCAR-5)?
Answer: > 100 µM (inactive)

Question: What about the GI50 (MCF7) of the same compound?
Answer: > 100 µM (inactive)

Question: What about the GI50 (OVCAR-4) of the same compound?
Answer: > 100 µM (inactive)

Question: What about the GI50 (MDA-MB-231) of the same compound?
Answer: > 100 µM (inactive)

Question: And the GI50 (SN12C)?
Answer: > 100 µM (inactive)

Question: And the GI50 (RPMI-8226)?
Answer: > 100 µM (inactive)

Question: And the GI50 (CAKI-1)?
Answer: > 100 µM (inactive)

Question: And the GI50 (K562)?
Answer: > 100 µM (inactive)

Question: And the GI50 (A549)?
Answer: > 100 µM (inactive)

Question: And the GI50 (NCI/ADR-RES)?
Answer: > 100 µM (inactive)

Question: And the GI50 (786-0)?
Answer: > 100 µM (inactive)

Question: What about the GI50 (SNB-75) of the same compound?
Answer: > 100 µM (inactive)

Question: And the GI50 (UO-31)?
Answer: > 100 µM (inactive)
